Results on eight molecules are retold here after patent US7368582B2, “Amidomethyl-substituted 2-(4-sulfonylamino)-3-hydroxy-3,4-dihydro-2H-chromen-6-yl compounds, a process and intermediates for their production, and pharmaceutical compositions containing them” (Solvay Pharmaceuticals GmbH, priority 2003, dated 2008).

Structures are written as SMILES.

One series concerns ventricle of guinea pigs. The series is described as follows: Functional effectiveness on guinea-pig hearts in vivo (ERP, QT, QRS, systolic blood pressure). More on the design: species or system guinea pig (Dunkin-Hartley). To be noted: 1 min. after 10 μmole/kg i.v.; for QRS / QT / syst. blood pressure (change): guinea pigs; for syst. blood pressure (change): minus effects due to the vehicle, negative values indicate reduction; for ERP: ventricle of guinea pigs, negative values indicate shortening. The text has this:
4. Investigation of the Functional Effectiveness of the Substances on Guinea-Pig Hearts in Vivo
In the test model shown below, it was shown that the substances according to the invention at most have slight undesirable proarrhythmic effects on repolarization in the ventricle. To this end, the influence of the compounds of Formula I on the effective refractory period (ERP) and other influencing variables on guinea-pig hearts in vivo were investigated. In this test model, non-selective potassium channel blockers not in accordance with the invention, which also block HERG and/or KvLQT1 channels, result in undesirable prolongation of the ERP and the QT time on an electrocardiogram (═ECG). The QT time is likewise a measurement of the repolarization in the heart. Prolongations of both the ERP and the QT time, respectively, which are due to the substances were independently interpreted as indications of the risk of the occurrence of undesirable torsade-de-pointes arrhythmias. Furthermore, the QRS interval also was determined in each case from the ECG as a measurement of the ventricular rate of spread of stimulus. Even a prolongation of the QRS interval caused by a test substance is connected with an increased risk of undesirable pro-arrhythmic side-effects. Therefore in this test model the lack of an ERP and QT time prolongation signifies a low risk, but the occurrence of a relevant ERP and QT prolongation on the other hand signifies an elevated risk of undesirable pro-arrhythmic effects. Also the lack of a prolongation of the QRS interval which is due to the substances due to the substances of Formula I investigated indicates a low risk of undesirable pro-arrhythmic side-effects, since lack of QRS prolongation indicates an undisturbed spread of stimulus in the ventricle. Conversely, a QRS prolongation, which is typically triggered by Class I antiarrhythmic drugs indicates slowing of the conduction rate and may promote the occurrence of ventricular tachycardias to ventricular fibrillation.
Male guinea pigs (Dunkin-Hartley from Charles River) were anaesthetized (ketamine 50 mg/kg, xylazine 10 mg/kg) and each of them was provided with a venous access via one jugular vein for administration of compounds of Formula I or a vehicle. A bipolar stimulation catheter was fed into the right ventricle of the guinea pigs via the other jugular vein (stimulation frequency 5 Hz). The arterial blood pressure was measured by a catheter located in the carotid artery which was connected to a Statham pressure transducer. The ECG was recorded via needle electrodes. The measured data were digitized via an analog/digital converter, recorded on a computer with suitable software (Ponemah Physiology Platform from Gould, USA) and printed out in parallel on a multichannel printer. After an equilibration period of 45 min., increasing doses of the compounds of Formula I or of the vehicle were administered intravenously (=i.v.) to the guinea pigs at 12-minute intervals. Before the first administration and in each case one minute after administration of increasing doses (0.1−max. 30 μmole/kg) of the substances of Formula I, the effective refractory period was measured. For this, after five normal stimuli in each case an additional pulse was applied and the elapsed time thereof from the preceding pulse was increased until a heart action was triggered. The observed time interval corresponds to the ERP of the ventricular myocardium.
In order to detect possible effects of the test substances on the blood pressure, in the same test model after each administration of substance the systolic and diastolic blood pressure was determined and compared with the previous blood-pressure level. The parameters were recorded automatically 1 and 8 min. after each administration of substance.
Only statistically significant effects were listed, with a t-test with a significance limit of P<0.05 being used for the statistical testing.

The next series deals with T1, Kv 1.3-potassium channel (Homo sapiens, UniProt P22001).
T1 construct: expressed in transfected cells; host or cells: CHO cells, stably transfected with the Kv 1.3 plasmid using DMRIE-C
T1 sequence (P22001 whole entry): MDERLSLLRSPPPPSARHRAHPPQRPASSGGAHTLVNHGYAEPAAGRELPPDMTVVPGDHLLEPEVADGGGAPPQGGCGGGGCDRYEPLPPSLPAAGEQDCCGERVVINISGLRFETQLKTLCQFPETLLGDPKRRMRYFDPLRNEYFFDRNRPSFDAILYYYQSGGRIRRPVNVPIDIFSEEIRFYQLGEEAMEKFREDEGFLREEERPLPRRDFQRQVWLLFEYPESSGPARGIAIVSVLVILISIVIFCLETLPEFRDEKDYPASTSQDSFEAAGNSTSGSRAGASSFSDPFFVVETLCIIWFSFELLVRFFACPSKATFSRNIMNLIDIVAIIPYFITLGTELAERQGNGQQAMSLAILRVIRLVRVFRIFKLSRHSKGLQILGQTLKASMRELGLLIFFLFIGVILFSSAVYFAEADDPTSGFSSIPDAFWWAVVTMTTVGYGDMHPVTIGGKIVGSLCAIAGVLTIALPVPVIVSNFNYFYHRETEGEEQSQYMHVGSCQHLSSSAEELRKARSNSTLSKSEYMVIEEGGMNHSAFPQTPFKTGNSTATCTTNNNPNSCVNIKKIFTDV
The series is described as follows: In-vitro Kv 1.3-potassium channel-blocking effect (membrane potential-sensitive fluorescent dye in transfected CHO cells). The class given is cell-based. To be noted: 10 μM test substance; CHO cells transfected with Kv 1.3; relative to reference margatoxin. The text has this:
2. In-Vitro Investigation of the Kv 1.3-Potassium Channel-Blocking Effect of the Substances
In this test model, known oocytes of the Chinese hamster (═CHO) are used which are stably transfected with the Kv 1.3-potassium channel. The blockade of the cell-inherent Kv 1.3-potassium channel activity in the transfected cells is accompanied by a positive shift in the membrane potential from approx. −40 mV to −30 mV, whereas in the wild-type CHO cells investigated in parallel no significant shift in the membrane potential is triggered. A change in the membrane potential is thus connected to the reduction in the Kv 1.3-potassium channel activity. By blocking the Kv 1.3-potassium channels e.g. with substances of Formula I and the resulting change in the membrane potential, an accumulation of a membrane potential-sensitive fluorescent dye in intracellular compartments of the oocytes and ultimately increasing fluorescence occurs. The change in the membrane potential of the oocytes is therefore measured indirectly via the increase in fluorescence of the membrane potential-senstive dyes.
The cells were transfected with the Kv 1.3 plasmid in known manner with a commercially obtainable transfection reagent (DMRIE-C from Gibco BRL, Germany). The successful transfection was verified by immunofluorescence and by “patch-clamp” investigations of the potassium ion current. The fluorescence measurements were performed on a Tecan Safire fluorescence reader from Tecan, Germany. In each case, the increase in the fluorescent intensity caused by the blockade of the Kv 1.3-potassium channels in the oocytes with substances of Formula I in a concentration of 10 μM was determined as characteristic variable. The increase in the fluorescent intensity was given in each case in percent (%) compared with an increase in the fluorescent intensity caused by the reference substance margatoxin. Margatoxin is known as a selective Kv 1.3-potassium channel blocker (see e.g. M. Garcia-Calvo et al., J. Biol. Chem. 268 (1993) 18866-18874).

Series [1] deals with hearts of anaesthetised cats. Description: Atrial and ventricular fibrillation threshold in anaesthetised cats in vivo. Also on record: species or system cat. To be noted: anaesthetized cats, dose 30 μmol/kg i.v.; for AFT (increase in the atrial fibrillation threshold) / VFT (increase in the ventricular fibrillation threshold): percent of value before administration. An excerpt: 5. Investigation of the Functional Effectiveness of the Substances on the Hearts of Anaesthetised Cats in Vivo
In the test model shown below, it was shown that the substances according to the invention at most have a marked atrial-selective effect on the heart. After administration of the substances according to the invention, a significant increase in the atrial fibrillation threshold—i.e. the current intensity at which atrial fibrillation occurs—was observed. At the same time, on the other hand, the ventricular fibrillation threshold is influenced only minimally.
Living cats were anaesthetised with chloralose/urethane (50/300 mg/kg i.v.) and were ventilated with ambient air. Then, following thoracotomy, stimulating electrodes were attached to the right atrium and the ventricle. The atrial and ventricular fibrillation threshold was determined in known manner by administration of rectangular pulses of increasing current intensity until atrial or ventricular fibrillation occurred (for performance see in detail: Br. J. Pharmac. 17 (1961) 167; Hdb. exp. Pharmacol. XVI/3 (1975) 131; Pharmacol. Res. 25 Suppl. 2 (1992) 156). The test substances of Formula I were dissolved in propylene glycol (80%) and administered intravenously in increasing doses (5-30 μmol/kg). Atrial and ventricular fibrillation thresholds were then determined at 5-minute intervals in known manner after the addition of the respective dose. The increase in the respective fibrillation threshold due to the substances investigated was expressed in percent of the value before administration of substance, i.e. a doubling of the fibrillation threshold corresponds to an increase of 100%.

For the molecule `CC1(C)Oc2ccc(CC(=O)NC3CCCc4ccccc43)cc2C(NS(=O)(=O)c2cccc(F)c2)C1O` (mixture of isomers) [Example 13], in the series on ventricle of guinea pigs, the QRS entry is on record as “n.s”, the QT result is “n.s”, the “syst. blood pressure (change)” value was “n.s” and the ERP result is reported as “n.s”. Besides, at Kv 1.3-potassium channel, the “Increase in the fluorescent intensity (% margatoxin)” value (“Increase … (% margatoxin)” for short) amounted to 53 % margatoxin.

Take `CCc1ccc(S(=O)(=O)N[C@@H]2c3cc(CC(=O)N[C@@H]4CCCc5ccccc54)ccc3OC(C)(C)[C@H]2O)cc1` [Example 2, 2-((3S,4R)-4-{[(4-ethylphenyl)sulfonyl]amino}-3-hydroxy-2,2-dimethyl-3,4-dihydro-2H-chromen-6-yl)-N-[(1R)-1,2,3,4-tetrahydronaphth-1-yl]acetamide]: in series [1], the “Selectivity factor (AFT:VFT)” value came to 17, the “AFT (increase in the atrial fibrillation threshold)” value worked out at 261% and the “VFT (increase in the ventricular fibrillation threshold)” value is 15%. In the series on ventricle of guinea pigs, the QRS result is “n.s”, the QT entry is “n.s”, the “syst. blood pressure (change)” value is listed as “n.s” and the ERP entry was “n.s”. Also, the “Increase … (% margatoxin)” value on Kv 1.3-potassium channel came to 72 % margatoxin.

Turning to `CCc1ccc(S(=O)(=O)N(CC(C)(C)C)C2c3cc(CC(=O)NCc4ccccc4)ccc3OC(C)(C)C2O)cc1` (centres unmarked) [Example 4, N-benzyl-2-{4-[[(4-ethylphenyl)sulfonyl](neopentyl)amino]-3-hydroxy-2,2-dimethyl-3,4-dihydro-2H-chromen-6-yl}acetamide], in series [1], the “Selectivity factor (AFT:VFT)” value is on record as 12, the “AFT (increase in the atrial fibrillation threshold)” value was found to be 226% and the “VFT (increase in the ventricular fibrillation threshold)” value is on record as 19%. For the same molecule, in the series with ventricle of guinea pigs, the QRS result is “n.s”, the QT result is reported as “n.s”, the “syst. blood pressure (change)” value is “n.s” and the ERP entry is “n.s”.

Consider `CCc1ccc(S(=O)(=O)N(CC(C)(C)C)[C@@H]2c3cc(CC(=O)NCc4ccccc4)ccc3OC(C)(C)[C@H]2O)cc1` [Example 7], for which, in the series with ventricle of guinea pigs, the QRS result is on record as “n.s”, the QT entry is “n.s”, the “syst. blood pressure (change)” value is listed as −15.3 mm Hg and the ERP was -8.2 ms.

Regarding `CCc1ccc(S(=O)(=O)N(CC(C)(C)C)[C@H]2c3cc(CC(=O)NCc4ccccc4)ccc3OC(C)(C)[C@@H]2O)cc1` [Example 8], in the series with ventricle of guinea pigs, the QRS result is “n.s”, the QT result is reported as “n.s”, the “syst. blood pressure (change)” value is on record as −10.7 mm Hg and the ERP entry is on record as “n.s”.

As to `CCc1ccc(S(=O)(=O)N[C@@H]2c3cc(CC(=O)N[C@H]4CCCc5ccccc54)ccc3OC(C)(C)[C@H]2O)cc1` [Example 9], in series [1], the “Selectivity factor (AFT:VFT)” value is listed as 7, the “AFT (increase in the atrial fibrillation threshold)” value came to 213% and the “VFT (increase in the ventricular fibrillation threshold)” value stood at 29%. Also, the “Increase … (% margatoxin)” value at Kv 1.3-potassium channel was determined as 107 % margatoxin.

For `CCc1ccc(S(=O)(=O)N(CC(C)(C)C)C2c3cc(CC(=O)NCCc4ccccc4)ccc3OC(C)(C)C2O)cc1` (centres unmarked) [Example 10], in series [1], the “Selectivity factor (AFT:VFT)” value came out at 13, the “AFT (increase in the atrial fibrillation threshold)” value is on record as 241% and the “VFT (increase in the ventricular fibrillation threshold)” value is recorded as 19%. Besides, in the series on ventricle of guinea pigs, the QRS entry was “n.s”, the QT result is “n.s”, the “syst. blood pressure (change)” value is listed as −15.9 mm Hg and the ERP is -8.0 ms. In addition, the “Increase … (% margatoxin)” value at Kv 1.3-potassium channel worked out at 82 % margatoxin.

Turning to `CCc1ccc(S(=O)(=O)NC2c3cc(CC(=O)N4CCN(c5ccccc5)CC4)ccc3OC(C)(C)C2O)cc1` (centres unmarked) [Example 16], in the series on ventricle of guinea pigs, the QRS result is “n.s”, the QT entry is “n.s”, the “syst. blood pressure (change)” value is listed as −8.6 mm Hg and the ERP is -7.5 ms.
